In ChEMBL document CHEMBL1131565, “Aminopyrimidines with high affinity for both serotonin and dopamine receptors” (J Med Chem, 1998):

Legend:
D(2) dopamine receptor [1] = target: T1, D(2) dopamine receptor (Homo sapiens, UniProt P14416); experiment: biochemical
Description: Binding affinity determined by measuring its ability to displace [3H]N-0437 radioligand in CHO-K1 cells on Cloned Human Dopamine receptor D2

[2] = target: 5-hydroxytryptamine receptor 1A (Rattus norvegicus) (UniProt P19327); experiment: Intrinsic agonist activity at 5-HT1A receptors was measured in vivo by measuring changes in 5-HT levels after administration of compound by observing accumulation of the 5-HT […] 5-hydroxytryptophan (5-HTP) after administration of a 10 mg/k g ip
D(2) dopamine receptor [3] = target: T1, D(2) dopamine receptor; experiment: The in vitro intrinsic activity was measured at DA D2 receptor by measuring its ability to increase [3H]thymidine uptake in CHO-K1 cells transfected with the Dopamine receptor D2; type: cell-based
D(3) dopamine receptor = D(3) dopamine receptor (Homo sapiens, UniProt P35462); experiment: biochemical
Description: Binding affinity determined by measuring displacement of [3H]spiperone from cloned Human Dopamine receptor D3 in CHO-K1 cells

[4] = target: T2, 5-hydroxytryptamine receptor 1A (Rattus norvegicus, UniProt P19327); experiment: The binding affinity by measuring its ability to displace [3H]8-OH-DPAT radioligand in 5-hydroxytryptamine 1A receptor on rat hippocampal preparation; type: tissue-based, Hippocampus
T2 sequence (P19327 whole entry): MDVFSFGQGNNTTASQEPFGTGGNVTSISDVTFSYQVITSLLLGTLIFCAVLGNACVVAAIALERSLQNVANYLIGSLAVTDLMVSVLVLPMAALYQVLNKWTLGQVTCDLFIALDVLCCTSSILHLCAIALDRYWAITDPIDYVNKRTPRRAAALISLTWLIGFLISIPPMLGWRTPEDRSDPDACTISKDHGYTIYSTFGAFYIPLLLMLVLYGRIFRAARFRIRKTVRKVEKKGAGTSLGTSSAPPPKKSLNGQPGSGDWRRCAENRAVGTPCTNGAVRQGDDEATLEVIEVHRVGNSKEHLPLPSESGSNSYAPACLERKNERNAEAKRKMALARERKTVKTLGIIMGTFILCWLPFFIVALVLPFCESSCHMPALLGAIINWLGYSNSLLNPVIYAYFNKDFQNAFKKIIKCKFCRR

D(2) dopamine receptor [5] = target: T1, D(2) dopamine receptor; experiment: Percentage intrinsic activity measured at DA D2 receptor by measuring its ability to […] [3H]-thymidine uptake in CHO-K1 cells transfected with the Dopamine receptor D2; type: cell-based
Rattus norvegicus [6] = experiment: In vivo DA d2 activity determined by measuring effects on DA synthesis by observing the changes in accumulation of (DOPA) after administration of a 10 mg/kg ip; type: functional; settings: route intraperitoneal
Rattus norvegicus [7] = experiment: The inhibited exploratory locomotor activity of compound in rat after oral administration; type: functional
[8] = The inhibition of Sidman avoidance responding of compound in squirrel monkeys after oral administration
Rattus norvegicus [9] = experiment: In vivo DA D2 activity determined by measuring effects on DA synthesis by observing the changes in accumulation of (DOPA) after administration of a 10 mg/kg ip; type: functional; settings: route intraperitoneal
Rattus norvegicus [10] = experiment: The % decrease of rat striatal 5-HIAA overflow at the dose of 10 mg/kg through ip.; type: functional
Rattus norvegicus [11] = experiment: The % decrease of rat striatal dopamine overflow at the dose of 10 mg/kg through ip.; type: functional
Mus musculus = experiment: The inhibited exploratory locomotor activity of compound in mice after ip administration; type: functional

T1 sequence (P14416 whole entry): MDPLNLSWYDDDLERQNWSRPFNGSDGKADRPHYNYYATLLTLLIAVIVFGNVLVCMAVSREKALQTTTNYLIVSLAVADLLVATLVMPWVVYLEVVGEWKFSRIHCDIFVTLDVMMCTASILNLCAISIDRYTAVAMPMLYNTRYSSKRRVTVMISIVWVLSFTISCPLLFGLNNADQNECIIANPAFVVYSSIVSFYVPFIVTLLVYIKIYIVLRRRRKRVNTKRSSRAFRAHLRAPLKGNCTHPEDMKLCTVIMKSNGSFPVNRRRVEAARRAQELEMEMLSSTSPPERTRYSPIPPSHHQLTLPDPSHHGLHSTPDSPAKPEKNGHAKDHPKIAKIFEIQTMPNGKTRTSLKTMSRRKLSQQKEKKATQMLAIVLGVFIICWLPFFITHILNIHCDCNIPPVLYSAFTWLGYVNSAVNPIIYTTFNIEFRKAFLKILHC
D(3) dopamine receptor, sequence (P35462 whole entry): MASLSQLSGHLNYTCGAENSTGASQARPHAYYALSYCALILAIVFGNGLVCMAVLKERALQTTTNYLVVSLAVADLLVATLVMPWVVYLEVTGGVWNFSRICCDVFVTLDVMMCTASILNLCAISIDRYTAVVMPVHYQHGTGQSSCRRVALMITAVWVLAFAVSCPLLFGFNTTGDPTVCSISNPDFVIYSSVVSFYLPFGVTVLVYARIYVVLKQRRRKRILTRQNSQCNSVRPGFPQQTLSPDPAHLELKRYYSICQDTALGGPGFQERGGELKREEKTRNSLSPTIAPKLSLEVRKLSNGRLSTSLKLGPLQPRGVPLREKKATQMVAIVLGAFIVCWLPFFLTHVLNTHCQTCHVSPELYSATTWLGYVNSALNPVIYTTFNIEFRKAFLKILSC

| SMILES | Ki (D(2) dopamine receptor [1]) [nM] | Ki (D(3) dopamine receptor) [nM] | Ki [4] [nM] | further results |
| --- | --- | --- | --- | --- |
| Fc1ccc(N2CCN(CC[C@H]3CC[C@H](Nc4ncccn4)CC3)CC2)cc1 | 8.5 | 48 | 4.5 | Control [2]: 143%; IC50 (D(2) dopamine receptor [3]): 79 nM; Intrinsic activity (D(2) dopamine receptor [5]): 5%; Control (Rattus norvegicus [6]): 142% |
| O=C(N[C@H]1CC[C@H](CCN2CCN(c3ccccc3)CC2)CC1)c1cccs1 | – | – | 57 | – |
| c1ccc(N2CCN(CCC[C@H]3CC[C@H](Nc4ncccn4)CC3)CC2)cc1 | 7.4 | 54 | 16 | – |
| c1ccc(N2CCN(CC[C@H]3CC[C@@H](Nc4ncccn4)CC3)CC2)cc1 | – | 29 | – | – |
| CN(c1ncccn1)[C@H]1CC[C@H](CCN2CCN(c3ccccc3)CC2)CC1 | 4.8 | 24 | 4.7 | – |
| Clc1cccc(N2CCN(CC[C@H]3CC[C@H](Nc4ncccn4)CC3)CC2)c1Cl | 11 | 5 | 76 | – |
| c1cnc(N[C@H]2CC[C@H](CCN3CCN(c4ccncc4)CC3)CC2)nc1 | 4800 | 2300 | 730 | – |
| c1cnc(N[C@H]2CC[C@H](CCN3CCc4ccccc4C3)CC2)nc1 | 110 | 40 | 44 | – |
| c1cnc(N[C@H]2CC[C@H](CCN3CCN(c4nccs4)CC3)CC2)nc1 | 46 | – | 10 | – |
| c1ccc(N2CCN(CC[C@H]3CC[C@H](Nc4ncccn4)CC3)CC2)cc1 | 5.2 | 13.7 | 3.5 | ED50 (Rattus norvegicus [7]): 4.6 mg/kg; ED50 [8]: 0.28 mg/kg; Control (Rattus norvegicus [9]): 67%; EC50 (D(2) dopamine receptor [3]): 29 nM; Decrease (Rattus norvegicus [10]): 42%; Decrease (Rattus norvegicus [11]): 50%; ED50 (Mus musculus): 0.4 mg/kg; Intrinsic activity (D(2) dopamine receptor [5]): 60% |
| c1ccc(N2CCN(C3CCC(Nc4ncccn4)CC3)CC2)cc1 (stereo in doubt; 19) | 160 | 550 | 470 | – |
| CN(CCc1ccccc1)CC[C@H]1CC[C@H](Nc2ncccn2)CC1 | 39 | – | 91 | – |
| FC(F)(F)c1cccc(N2CCN(CC[C@H]3CC[C@H](Nc4ncccn4)CC3)CC2)c1 | 6 | 32 | 13 | – |
| CCCN(CCC)CC[C@H]1CC[C@H](Nc2ncccn2)CC1 | 2400 | 800 | – | – |
| C1=C(c2ccccc2)CCN(CC[C@H]2CC[C@H](Nc3ncccn3)CC2)C1 | 4.7 | 3.7 | 3.9 | – |
| COc1ccccc1N1CCN(CC[C@H]2CC[C@H](Nc3ncccn3)CC2)CC1 | 3 | 11 | 0.5 | Control [2]: 128%; Control (Rattus norvegicus [9]): 173%; IC50 (D(2) dopamine receptor [3]): 9.9 nM; Intrinsic activity (D(2) dopamine receptor [5]): 8% |
| c1ccc(N2CCN(CC[C@H]3CC[C@H](Nc4ncnc5ccccc45)CC3)CC2)cc1 | 3.2 | 0.02 | 74 | – |
| c1cnc(N[C@H]2CC[C@H](CCN3CCN(c4ncccn4)CC3)CC2)nc1 | 240 | 590 | 8.6 | – |
| c1ccc(N2CCN(CC[C@H]3CC[C@H](Nc4ncccn4)CC3)CC2)nc1 | – | 26 | 2.2 | Intrinsic activity (D(2) dopamine receptor [5]): 41%; Control (Rattus norvegicus [6]): 159% |
| c1cnc(N[C@H]2CC[C@H](CCN3CCN(c4cnccn4)CC3)CC2)nc1 | 180 | 210 | 29 | – |
| COc1ccc(N2CCN(CC[C@H]3CC[C@H](Nc4ncccn4)CC3)CC2)cc1 | 390 | 52 | 160 | – |
| c1ccc(N2CCN(C[C@H]3CC[C@H](Nc4ncccn4)CC3)CC2)cc1 | 5.7 | 89 | 41 | – |
| c1ccc(N2CCN(C3CCC(Nc4ncccn4)CC3)CC2)cc1 (stereo in doubt; 20) | 320 | 610 | 83 | – |
| c1cnc(N[C@H]2CC[C@H](CCN3CCN(c4cccnc4)CC3)CC2)nc1 | 25 | 4.7 | 9.5 | – |
| O=C(N[C@H]1CC[C@H](CCN2CCN(c3ccccc3)CC2)CC1)C1CCCCC1 | – | – | 5300 | – |
